Series [1] in a line: clinical trial pharmacokinetics: plasma and cervicovaginal (CVF) secretion drug concentrations after oral sildenafil. The format is in vivo. The settings on record: women, oral 20 mg 3 times a day for a month.
Experimental: A series of pharmacokinetic and safety studies were conducted in both women and sheep.
In series [2] the test system is urinary incontinence (UI) episodes. The experiment in a line: clinical trial of oral sildenafil in women: UI episodes and side effects. The format is in vivo. The text has this: In view of this, the inventors determined to develop a way to administer sildenafil directly to the muscles and structures of the pelvic floor using an intravaginal apparatus. Disclosed in the discussion that follows are example embodiments of intravaginal apparatuses that can be used for treating urinary incontinence.

This is an account of results in patent US20250332392A1, “APPARATUSES AND METHODS FOR TREATMENT OF FEMALE URINARY INCONTINENCE” (THE BOARD OF REGENTS OF THE UNIVERSITY OF TEXAS SYSTEM, priority 2022, published 2025).

Consider `CCCc1nn(C)c2c(=O)[nH]c(-c3cc(S(=O)(=O)N4CCN(C)CC4)ccc3OCC)nc12` [sildenafil], for which the “dependence of CVF secretion drug concentrations on plasma drug concentrations” value in series [1] was “not dependent on the plasma drug concentrations”. Further, in series [1] (later timepoints after the last oral dose), the “CVF secretion drug concentrations compared with plasma drug concentrations” value is listed as “higher than the plasma drug concentrations”. Further, the side effects result in series [2] (women taking oral sildenafil) was “flushing, visual changes, and gastrointestinal changes”. Besides, the “number of UI episodes per day” value in series [2] (women taking oral sildenafil (20 mg 3 times a day for a month)) is “decrease”.
